Square brackets hold non-standard residues; d marks the D form. Peptide text beside a SMILES is read from it. * marks the point of attachment. Sta = CC(C)C[C@H](N)[C@@H](O)CC(=O)O; Isovaleryl = CC(C)CC(=O)*; Cbz = O=C(OCc1ccccc1)*; CH2F = FC*
Key:
Format in all cases: cell-based
[1] = test system: human leukemia U937 cells; assay: survival of human leukemia U937 cells; conditions: sole administration, 10 μg/ml
[2] = test system: human prostate cancer ALVA-41 cells; assay: survival rate of cells (Cell Counting Kit-8), ALVA-41 cells; conditions: for number of living cells: ALVA-41 cells, 20 hours
Method: The survival rate of cells was measured by Cell Counting Kit-8 in accordance with a manufacturer's manual. The method will be described briefly as follows. A 96-well (each 100 μl) plate was inoculated with cells (1×10^4 cells) and incubated for 24 hours, and the cells were incubated in a non-serum culture medium Opti-MEM together with a given concentration of each cathepsin purified from rat stomach (References #27 and #60-#62). Thereafter, the kit reagent (10 μl) was added to each well and the wells were incubated for another 1 hour. After incubation, each well was measured at the absorbance of 450 nm with a microplate reader.
(§1) In the figure, an indicating bar scale represents 50 μm. […] In the figure, an indicating bar scale represents 50 μm.
In this experiment, the survival rate of the ALVA-41 cells was measured by incubating the cells with cathepsin E of a given concentration in the presence or absence of pepstatin A (100 μM) at 37° C. and pH 7.4 for 20 hours. The data is represented as a percentage with respect to the value for non-treated cell group. The data were obtained as an average value±SD from the data obtained by four separate experiments. […] In this experiment, the HEK293 cells were incubated together with a given concentration of natural cathepsin E, wild-type recombinant and the active site mutant (D98A/D283A) at 37° C. and pH 7.4 for 20 hours. The survival rate of the cells was measured and represented as a percentage with respect to the value of the non-treated cell group. The data represents an average value±SD from the data obtained by four separate experiments. In the value, *p<0.001 is a corresponding value for the cells treated with the mutant. […] In this experiment, ALVA-41 cells were treated solely with cathepsin E of a given concentration in the same manner as for FIG. 2A and the culture supernatant was recovered, followed by centrifuging to remove the precipitate and transferring a portion ([…]) of the supernatant to a freshly prepared culture of ALVA-41 cells. Thereafter, the cells were incubated at 37° C. and pH 7.4 for 20 hours in the absence (black round mark) or presence (white round mark) of pepstatin A (100 μM) and measured for the survival rate of the cells. The cell survival rate is represented as a percentage with respect to the value of the cells treated with the culture supernatant of the ALVA-41 cells treated with physiological saline. The data is represented as an average value±SD from the data obtained by four separate experiments. […] The cathepsin E activity (on the upper panel) and the cytotoxic activity (on the lower panel) of each column fraction were determined using freshly prepared ALVA-41 cells and a cathepsin E-specific substrate. The cell survival rate of each fraction treated with the protein at a given final concentration is represented as a percentage with respect to the value of the cells treated with physiological saline and as an average value±SD from the data obtained by four separate experiments. The cathepsin E activity is represented as a percentage of the total activity in the culture supernatant, and the data is represented as an average±SD from the data obtained by three separate experiments.

[3] = test system: human prostate cancer ALVA-41 cells; assay: measurement for apoptosis (morphology, annexin V staining, TUNEL assay), ALVA-41 cells; conditions: for effect of caspase inhibitor on cell death of cancer cells caused by cathepsin E: ALVA-41 cells treated with cathepsin E
Method: The cells were measured for a morphological variation of apoptosis by phase contrast microscopy. The cells of prophase and post-phase apoptosis were detected by annexin V staining and TUNEL assay. In order to carry out the annexin V staining of ALVA-41 cells, the cells were exposed to cathepsin E or cathepsin L for 4 hours and centrifuged. After centrifugation, the separated cells were washed twice with PBS and incubated with fluorescein isothiocyanate-conjugated annexin V for 10 minutes at room temperature in a dark place. The cells that were positive as a result of the annexin V staining were then detected with fluorescence microscope. The TUNEL assay was carried out for the incubated tumor cells using Apop Tag Peroxidase Apoptosis Detection Kit and for heterografts using Tumor TACS In Situ Apoptosis Detection Kit.
as §1

COc1cc([C@@H]2c3cc4c(cc3[C@@H](O[C@@H]3O[C@@H]5CO[C@@H](C)O[C@H]5[C@H](O)[C@H]3O)[C@H]3COC(=O)[C@H]23)OCO4)cc(OC)c1O [etoposide]
rate of apoptosis of U937 cells [1]: approximately 40%

CC(C)CC(=O)N[C@H](C(=O)N[C@H](C(=O)N[C@@H](CC(C)C)[C@@H](O)CC(=O)N[C@@H](C)C(=O)N[C@@H](CC(C)C)[C@@H](O)CC(=O)O)C(C)C)C(C)C [pepstatin A, reference compound] (Isovaleryl-VV[Sta]A[Sta]-OH)
effect on cytotoxicity of cathepsin E against cancer cells ([2]; added to culture medium of ALVA-41 cells, pepstatin A 100 μM): suppressed

COC(=O)C[C@H](NC(=O)[C@H](C)NC(=O)[C@@H](NC(=O)OCc1ccccc1)C(C)C)C(=O)CF [z-VAD-fmlk, reference compound] (Cbz-Val-Ala-Asp(OMe)-CH2F)
effect of caspase inhibitor on cell death of cancer cells caused by cathepsin E [3]: suppression

DEVD-fmlk [reference compound]
effect of caspase inhibitor on cell death of cancer cells caused by cathepsin E [3]: suppression

cathepsin B
number of living cells ([2]; neutral pH, 10-100 μg/ml): increased the number of living cells in a concentration-dependent way

cathepsin D
number of living cells ([2]; neutral pH, 10-100 μg/ml): increased the number of living cells in a concentration-dependent way

cathepsin L
staining with annexin V and TUNEL reagent ([3]; ALVA-41 cells, 100 μg/ml): negative
morphological changes of treated cells ([3]; ALVA-41 cells, microscopy, 100 μg/ml): necrosis-like morphological changes
number of living cells ([2]; high concentration range (50-100 μg/ml)): decreases the number of the living cells
number of living cells ([2]; low concentration (10 μg/ml)): increase in the number of these living cells

From patent US20100047227A1, “NOVEL ANTICANCER CATHEPSIN FORMULATIONS AND ANTICANCER AGENT FOR USE IN COMBINED ANTICANCER THERAPY” (priority 2006, published 2010)
